Assay results as given in ChEMBL document CHEMBL4725415, “First Structure-Activity Relationship Study of Potent BLT2 Agonists as Potential Wound-Healing Promoters” (J Med Chem, 2020).
In brackets after ≈: the same amount, converted by molar mass.

Key:
physchem = settings: PBS buffer with 1% dimethyl sulfoxide, pH 7.4
in vitro = settings: Sprague-Dawley, rat, liver microsomes

solubility (physchem): 250 µM (≈ 96.9 µg/mL)
remaining at 1 h, 1000 µM (in vitro): 66%
SMILES: CCCCC(=O)N(Cc1ccc(-c2ccccc2C(=O)O)cc1)c1ccccc1
